Test [1] has as its system RENCA cells. Description: Cell lysis by splenocyte effector cells, LDH release, RENCA targets. The test is classed as cell-based, mouse. The note with it: single peptide vaccine. As for the experimental part:
FIG. 20. […] BALB/c mice were immunized with CPQ/peptide vaccine on day 0 & 7, then inoculated with RENCA cells subcutaneously on day 14. (A) Tumor sizes of mice vaccinated with CPQ admixed with indicated peptide 18 days post tumor inoculation. Splenocytes were prepared 18 days post tumor inoculation and cultured in vitro for 5 days then stimulated with antigens and served as Effector cells (E), tumor cells were target cells (T). Effector cells were incubated with target cells for 5 hours, then specific lysis was analyzed by the nonradioactive LDH release assay by following the manufacturer's instructions. Percent cell lysis of RENCA cells (B) and percent cell lysis of irrelevant TC-1 cells (C). Error bars show mean+/−std. dev. for n=5 independent experiments.
For Cytotoxic T lymphocyte (CTL) cytotoxicity assay, isolated splenocytes were cultured in the cell culture medium and stimulated by mouse IL-2 (Pepro tech; catalog: 212-12; 10 IU/mL) and antigens (10 μg/mL) for 5 days to use as the effector cells. 5000 CT26 cells were seeded in a 96 wells plate and pulsed with 10 μg/mL antigens for 1 hour, then splenocytes were added to the plate at different E:T ratios for 5 hours. The cytotoxicity of splenocytes on tumor cells was assessed by lactate dehydrogenase (LDH) release using Non-Radioactive Cytotoxicity Assay Kit (Promega; catalog: G1780) according to manufacturer instructions.

Test [2] concerns RENCA cells. Description: Prophylactic vaccine tumor model, subcutaneous RENCA challenge. The test is classed as in vivo, BALB/c mice. The note with it: single peptide with CoPoP liposome, days 0 and 7, RENCA day 14. As for the experimental part: Multivalent vaccine was prepared by first incubate all 20 peptides with CPQ and 2HPQ liposome for a hour at room temperature with a mass ratio of 1:4. The binding percentage of peptides was assessed by peptide filtration assay. […] There was no significant change of sizes of liposome before or after binding, which were around 100 nm (FIG. 19B). The polydispersity index of liposomes is smaller than 0.25 (FIG. 19C). Mice were vaccinated with CPQ/peptides on day0 & 7, the injection dose is 50 ng per peptide and lug total peptide per mouse. Mice were then challenged with RENCA cells subcutaneously on day14.
To confirm which peptide was responsible to the anti-tumor efficacy of the vaccine, we admixed single peptide with CoPoP liposome as a vaccine to inject BALB/c mice. These 20 vaccines were injected to 20 groups of BALB/c mice on day 0 & 7, RENCA cells were inoculated on day14.
Tumor challenge: For the prophylactic vaccine tumor model, mice were vaccinated on day 0 and 7, and challenged on day 14. For testing the long-term protection of vaccine, mice were challenged on day 80. […] Tumor growth was monitored three times a week and tumor sizes were calculated by equation: Tumor volume=length×width^2/2. […] Tumor nodules were counted manually and lung weights were measured.

Test [3] concerns IFN-γ and TNF-α producing CD8^+ T cells. As to the kind of experiment: Intracellular IFN-γ / TNF-α staining of splenocytes after antigen re-stimulation. The test is classed as in vivo, BALB/c mice. The note with it: mice vaccinated with CPQ and 20 RENCA peptides. As for the experimental part: For Intracellular staining: 100 μL of 1×10^6 splenocytes were seeded in a flat bottom 96 wells plate and stimulated with 10 μg/mL antigen for 15-18 hours in the cell culture incubator. Then Brefeldin A was added to the plates with a dilution of 1000× for another 5 hours. Cells were transferred to a round bottom 96 wells plate and centrifuged at 1350 rpm for 3 mins, the cell pellets were washed twice and stained with 500× live/dead fixable dye, 200× diluted APC anti-mouse CD8, 200× diluted FITC anti-mouse CD4, 200× diluted PE/Cy7 anti-mouse CD62L and 200× diluted PerCP/Cy5.5 […] 25 min at 4° C. with shaking. Cells were washed twice and fixed and permeabilized by fixation/permeabilization buffer for 20 min at 4° C. Cells were washed twice with perm wash buffer and stained with 200× diluted pacific blue anti-mouse IFN-γ and 200× diluted PE anti-mouse TNF-α for 30 min on ice. Cells were washed twice by perm/wash buffer for flow cytometry.

The subject of test [4] is E749-57 specific CD8^+ T cells. As to the kind of experiment: E749-57 tetramer staining of CD8+ T cells in blood. The note with it: E7HHH49-57 admixed with poly(I:C), 19 days post-tumor inoculation. The test is classed as in vivo, C57BL/6 mice. An excerpt: FIG. 23. Immunization with E7HHH49-57-admixed with CPQ inhibits tumor growth in a therapeutic setting more potently than poly(I:C). C57BL/6 mice were inoculated with TC-1 cells subcutaneously on day 0; then different vaccines were given 2 days post-tumor inoculation. […] (A) Tumor growth of mice that vaccinated with indicated vaccine. (B) Tumor sizes of mice on day 19. (C) Survival of mice. (D) Percentage of CD8^+E749-57 tet^+ cells in the blood. Error bars show mean+/−std. dev. for n=5 per group. * p<0.05, ** p<0.01 and **** p<0.0001, analyzed by (C) long rank test or (D) one-way ANOVA with Bonferroni multiple comparisons post-test.
(§1) Since CPQ/E7HHH49-57 was effective in a prophylactic setting, we next assessed the vaccine on established TC-1 tumors, which is also the setting in which most cancer vaccines would be initially tested clinically. Poly(I:C) was used as an adjuvant comparator. For poly(I:C), the synthetic short peptide dose ranged from […] per mouse while the poly(I:C) dose remained fixed at […]. For the CPQ liposome adjuvant, the peptide dosing varied from […] per mouse. Given that the ratio of liposomes to peptide was fixed, this corresponds to a 3D6A-PHAD dose and QS-21 dose ranging from 1.6 to 0.16 μg, along with a CoPoP dose ranging from 4 to 0.4 μg. […]

For test [5], the system named is TC-1 cells. As to the kind of experiment: Therapeutic vaccine tumor model, subcutaneous TC-1. The note with it: E7HHH49-57 admixed with poly(I:C), up to 20 μg peptide. The test is classed as in vivo, C57BL/6 mice.
Source text: FIG. 23. Immunization with E7HHH49-57-admixed with CPQ inhibits tumor growth in a therapeutic setting more potently than poly(I:C). C57BL/6 mice were inoculated with TC-1 cells subcutaneously on day 0; then different vaccines were given 2 days post-tumor inoculation. Blood was collected 18 days post-tumor inoculation for CD8^+ T cell analyses. (A) Tumor growth of mice that vaccinated with indicated vaccine. (B) Tumor sizes of mice on day 19. (C) Survival of mice. (D) Percentage of CD8^+E749-57 tet^+ cells in the blood. Error bars show mean+/−std. dev. for n=5 per group. * p<0.05, ** p<0.01 and **** p<0.0001, analyzed by (C) long rank test or (D) one-way ANOVA with Bonferroni multiple comparisons post-test.
as §1

The test system of test [6] is AH1-specific CD8^+ T cells. As to the kind of experiment: AH1 tetramer staining of CD8+ T cells after immunization. The test is classed as in vivo, BALB/c mice. The note with it: CPQ with 1 μg total peptide, days 0 and 7, blood day 14. How it is done:
In vivo immunization: Murine studies were performed according to protocols approved by the University at Buffalo IACUC. 5-6 week-old female BALB/c mice (Charles River Laboratories, strain BALB/cAnNCrl) were immunized intramuscularly on the right hind leg. BALB/cJ mice (Jackson Laboratories) were used in this study only for DNA sequencing where indicated.
For tetramer staining, immunized mice were analyzed for the percentages of tumor Ag-specific CD8^+ T cells by a tetramer staining assay. H-2L^d-restricted AH1 ([…]) peptide was complexed with MHC-I (H-2L^d) and conjugated with PE (the NIH Tetramer core facility). 60 μL of blood incubated with the AH1 tetramer for 1 hr at 4° C. (100× dilution), then incubated with CD8a, MHC-II (IA/IE), B220, CD4, CD44 and CD62L antibodies for 30 min at 4° C. (1000× dilution). Red blood cells were lysed by cell lysis buffer for 5 mins then cells were centrifuged at 500×g for another 5 min. The cell pellets were washed twice for flow cytometry analysis. For tetramer staining of splenocytes, 1×10^6 cells were incubated with tetramer and antibodies in the same condition as blood, and then washed twice for flow cytometry analysis. Flow cytometry studies were carried out using a BD LSRFortessam X-20 cytometer. Flowjo (version 10) software was used for data analysis.

For “3His-AYTTQREEL (HHHAYTTQREEL; N-terminal 3His tag; Renca_2)”, the “Lysis of RENCA cells by T cells of vaccinated mice” value in test [1] is recorded as “induced functional T cells that specific targets to RENCA cells”. The “Tumor growth, single peptide vaccine” value in test [2] was “inhibited tumor growth”. In addition, the “IFN-γ producing CD8^+ T cells in the spleen after stimulation with individual peptide” value in test [3] was “around 2%”.
As to “Polyinosinic:polycytidylic acid [poly(I:C)]”, the “Ag-specific CD8^+ T cells in the blood” value in test [4] is on record as “almost no”. Also, the “Time within which tumors of all mice reached the 1 cm endpoint” value in test [5] was at most 60 days.
As to SPSYVYHQF [AH1], the “CD8^+ T cells that were Ag specific (AH1 tet^+)” value in test [6] is listed as “did not elicit detectable amount”.

The values are drawn from US20240091328A1, “FORMULATIONS AND METHODS FOR MHC-I RESTRICTED EPITOPE IMMUNIZATION” (The Research Foundation for The State University of New York, priority 2021, published 2024).
